The results in this text go back to ChEMBL document CHEMBL4270483, “Effect of Hops Derived Prenylated Phenols on TNF-α Induced Barrier Dysfunction in Intestinal Epithelial Cells” (J Nat Prod, 2017).

Calls of active or inactive are those of the source. The rule behind the calls is not given here.

For data set [1], the system named is Caco-2. In words: Cytotoxicity in human Caco2 cells assessed as reduction in ATP metabolism at 1 to 100 uM incubated for 24 hrs by cell-titer-Glo luminescent cell viability assay. The format is ADME, cell-based. To be noted: caco-2, 24 h.
Data set [2] concerns Caco-2. In words: Effect on barrier function in human Caco2 cells assessed as LY transport at 10 uM pre-treated on apical side for 1 hr and measured after 48 hrs. The format is ADME, cell-based. To be noted: caco-2, 48 h. In general terms: Caco-2 cells form a polarised layer with tight junctions and transporters.
Data set [3] has as its system Caco-2. In words: Increase in transepithelial electrical resistance in human Caco2 cells at 10 uM pre-treated on apical side and measured after 36 to 72 hrs. It counts as functional, cell-based.
For data set [4], the system named is Caco-2. The data set is described as follows: Inhibition of TNFalpha induced barrier dysfunctionin human Caco2 cells assessed as increase in transepithelial electrical resistance at 10 uM pre-treated on apical side for 1 hr before TNFalpha stimulation on basolateral side for 72 hrs by cellZScope monitoring device based assay. The format is functional, cell-based.

The test system of data set [5] is Caco-2. The data set is described as follows: Inhibition of TNFalpha induced barrier dysfunctionin human Caco2 cells assessed as increase in transepithelial electrical resistance at 10 uM treated on apical side for 1 hr post TNFalpha stimulation on basolateral side for 24 hrs and measured after 72 hrs by cellZScope monitoring device based assay. It counts as functional, cell-based.

The subject of data set [6] is Caco-2. The data set is described as follows: Inhibition of TNFalpha induced barrier dysfunctionin human Caco2 cells assessed as prevention of morphological changes in ZO1 protein at 10 uM pre-treated on apical side for 1 hr before TNFalpha stimulation on basolateral side for 48 hrs by confocal laser scanning microscopy. The format is functional, cell-based.
For data set [7], the system named is Caco-2. In words: Cytotoxicity in human Caco2 cells assessed as reduction in ATP metabolism at 100 uM incubated for 24 hrs by cell-titer-Glo luminescent cell viability assay. It counts as ADME, cell-based. The settings on record: caco-2, 24 h.
In data set [8] the test system is Caco-2. In words: Cytotoxicity in human Caco2 cells assessed as reduction in ATP metabolism at 1 to 50 uM incubated for 24 hrs by cell-titer-Glo luminescent cell viability assay. The format is ADME, cell-based. The settings on record: caco-2, 24 h.
The subject of data set [9] is Caco-2. In words: Cytotoxicity in human Caco2 cells assessed as reduction in ATP metabolism at 50 to 100 uM incubated for 24 hrs by cell-titer-Glo luminescent cell viability assay. It counts as ADME, cell-based. The settings on record: caco-2, 24 h.
Data set [10] deals with Caco-2. The data set is described as follows: Stimulation of growth in human Caco2 cells assessed as […] in ATP metabolism at 10 uM incubated for 24 hrs by cell-titer-Glo luminescent cell viability assay. It counts as functional, cell-based.

Take `CC(C)=CCc1c(O)cc(O)c2c1O[C@H](c1ccc(O)cc1)CC2=O`: the Activity result in data set [1] and in data set [2] was “Non-Toxic” each time. Moreover, the outcome in data set [3] was Active. Also, the inhibition entry in data set [4], in data set [5] and in [6] was “Active” each time.
In the case of `CC(C)=CCc1c(O)cc2c(c1O)C(=O)CC(c1ccc(O)cc1)O2` (centres undefined), the Activity in data set [7] is 18%; in [8] it was “Non-Toxic”; in data set [2], “Non-Toxic”. In addition, the result in data set [3] was Active. For the same molecule, in data set [4], the inhibition result is “Active”. In data set [5], the inhibition entry is “inactive”.
Regarding `COc1cc(O)c(CC=C(C)C)c(O)c1C(=O)/C=C/c1ccc(O)cc1` [XANTHOHUMOL], the results for the Activity in data set [9] and in [2] were 55.3% and “Non-Toxic”, respectively. Further, the result in [10] and in [3] was Active. The inhibition result in data set [4], in data set [5] and in data set [6] was “inactive” throughout.
